Results taken from US20210386754A1, “COMPOSITIONS AND METHODS FOR TREATING ATHEROSCLEROTIC VASCULAR DISEASE” (AUGUSTA UNIVERSITY RESEARCH INSTITUTE, INC., priority 2020, published 2021).
“Also recorded” adds a separate entry of the source.

Columns and labels:
THP-1 macrophages = assay: Foam cell formation / nLDL macropinocytosis, Nile Red FACS; assay type: cell-based, human; details: for macropinocytosis of nLDL (Nile Red fluorescence): M-CSF 100 ng/mL, PDGF 200 ng/mL
Protocol: Flow cytometry experiments were performed using the BD Accuri C6 flow cytometer using a standard protocol.
Foam cell formation: THP-1 macrophages or bone marrow-derived macrophages were treated with vehicle, known macropinocytosis stimulators (PMA 1 μM, M-CSF 100 ng/mL or PDGF 200 ng/mL)+/− macropinocytosis inhibitors (imipramine 10 μM or EIPA 25 μM; 1 hour pre-incubation) in the presence of nLDL, ox-LDL, or ac-LDL ([…]) for 24 hours. Cells were fixed in 2% PFA and stained with Nile Red (50 ng/mL) for 7 min. Fluorescence intensity was measured using the FL3 channel for Nile Red (Ex: 488 nm, Em: 670 nm).

[1] = test system: lipopolysaccharide (LPS)-treated ApoE-/- mice; details: Zhao et al. 2012; cited from earlier work
[2] = test system: pre-hypertensive patients; details: amiloride monotherapy; independent of blood pressure lowering effect; cited from earlier work
[3] = test system: macropinocytosis in macrophages; assay: Unbiased screen of FDA-approved drug library for inhibition of macrophage macropinocytosis; assay type: cell-based; details: screen of an FDA-approved drug library
[4] = cited from earlier work
[5] = test system: hypercholesterolemic mice (PCSK9-AAV-mediated LDLR knockdown); assay: Atherosclerosis model: PCSK9-AAV, partial LCA ligation, Western diet; assay type: in vivo, mouse
From the text: Mice were given a single injection of AAV-PCSK9 (1×1011 VG) and fed a Western diet (Envigo, TD.88137, Indianapolis, Ind.). One week after AAV-PCSK9 injection, mice underwent partial carotid ligation surgery as previously described (67) and Western diet was continued for another 3 weeks. In separate experiments, mice were given a single injection of AAV-PCSK9 (1×1011 VG) and fed a Western diet for 16 weeks. Mice were anesthetized (isoflurane inhalation, 3%) and exsanguinated. Blood was collected from left ventricle using a heparinized syringe fitted with a 21 G needle. Aortic arch and carotid arteries were collected, and gross macroscopic images were acquired. For molecular histology studies, carotids and aortic arch were fixed in 4% paraformaldehyde (PFA), embedded in OCT compound and stored at −80° C. until use.
ORO staining: Atherosclerosis development in carotid arteries and whole aorta were studied initially by gross imaging followed by Oil Red O (ORO) staining and plaque quantification. Briefly, the entire aorta was isolated, cleaned of peri-adventitial fat, fixed and imaged on the surface of black silicone-coated dissection dishes. Left carotid arteries were embedded in OCT and 10 μm thick cross-sections were prepared. The arteries were divided into 3 regions based on their distance from the aortic arch: proximal (0-400 μm), middle (2,000-2,400 μm) and distal (4,000-4,400 μm). Frozen sections and whole aortas were then stained with ORO solution (2%) and images were taken using light microscope equipped with a camera under 20× and 1.6× objective lens. The total area, lumen area and ORO positive area were measured for six sections/anatomical position per mouse using Image J software. The ratio of ORO positive area to arterial area is represented as plaque area. Plasma total cholesterol concentrations were determined by the Amplex™ Red Cholesterol Assay Kit (ThermoFisher, Rockford, Ill.). Plasma lipid profiles were obtained by column fractionation and measurements of fraction cholesterol content.
Hematoxylin and Eosin (H&E) or Masson's trichrome staining: Frozen sections were also used for Hematoxylin and Eosin (H&E) or Masson's trichrome staining following standard procedures to evaluate the lesion size and collagen content, respectively.
Orcein and Martius Scarlet Blue (OMSB) staining: OMSB was used for qualitative and quantitative analysis of atherosclerotic plaques as previously described. Briefly, left carotid arteries were dissected out, fixed in 4% buffered paraformaldehyde (pH=7.4) for at least 48 hr, and then routinely processed and embedded in paraffin (tissue processor TP1020; Leica, Wetzlar, Germany). Cross sections were cut every 5 m along the artery (starting from the proximal end) and mounted serially on silanized slides. Sections were stained and mounted automatically using Leica ST5010 Autostainer XL combined with Leica CV5030 Glass Coverslip. Deparaffinized sections through xylene and ethanol, and rehydrate to water. Postfix sections in Bouin's fixative at 56° C. for 1 hour, then rinse for 10 min in tap water to remove traces of picric acid. Stain with orcein for 20 min at 56° C. Differentiate in acidic alcohol for 2 min and then transfer to 96% ethanol for 30 s. Stain with martius yellow for 3 min and rinse in distilled water (2×2 min). Stain with crystal scarlet for 10 min. Differentiate with phosphotungstic acid 2 min and transfer to distilled water (for about 10 s). Stain with methyl blue 5 min. Rinse in acetic acid water 3 min, dehydrate through ethanol and carbol-xylene, clear in xylene, and mount in DPX or other resin. Staining of collagen with picrosirius red. The sections were examined and digital images of stained arteries were recorded using Olympus dotSlide system (Olympus, Tokyo, Japan). Segmentation algorithm allowed to distinguish vessel wall area, lumen area, plaque area, and area of the plaque occupied by collagen. The results were presented as areas of identified components in μm2. […]

[6] = imipramine-treated vs control mice

PDGF
macropinocytosis of nLDL (Nile Red fluorescence) (THP-1 macrophages): stimulated

catalase
M-CSF- and PDGF-induced nLDL internalization (THP-1 macrophages; non-pegylated SOD 100 U/mL and/or catalase 250 U/mL, 1 hr pretreatment, 50 μg/mL nLDL, 24 hours): did not inhibit

N=C(N)NC(=O)c1nc(Cl)c(N)nc1N [amiloride]
lesion development [1]: reduces | pulse wave velocity (PWV) [2]: improves

CN(C)CCCN1c2ccccc2CCc2ccccc21 [imipramine]
IC50 [3]: 131 nM | oral bio-availability [4]: 95% | M-CSF- and PDGF-induced intracellular lipid accumulation following nLDL treatment (Nile Red) (THP-1 macrophages; imipramine 1 hour preincubation, 100 ng/mL M-CSF or 200 ng/mL PDGF, 50 μg/mL nLDL, 24 hours): inhibited | atherosclerotic lesion formation (OMSB staining) ([5]; imipramine 9 mg/mL, pump rate 0.11 μl/hour, sc, LDLR-knockdown mice, vs vehicle): significantly attenuates; also recorded: attenuated | collagen area (collagen %) ([5]; imipramine sc vs vehicle): inhibited | relative internal vessel area (IVA %) ([5]; imipramine sc vs vehicle): inhibited | blood pressure [5, 6]: no significant differences | body weight [5, 6]: no significant differences | fat mass [5, 6]: no significant differences | whole body fluid content [5, 6]: no significant differences

B1: M-CSF: macrophage colony-stimulating factor, physiological stimulator of macropinocytosis (protein, UniProt P09603 33-554, looked up)
Macrophage colony-stimulating …: EEVSEYCSHMIGSGHLQSLQRLIDSQMETSCQITFEFVDQEQLKDPVCYLKKAFLLVQDIMEDTMRFRDNTPNAIAIVQLQELSLRLKSCFTKDYEEHDKACVRTFYETPLQLLEKVKNVFNETKNLLDKDWNIFSKNCNNSFAECSSQDVVTKPDCNCLYPKAIPSSDPASVSPHQPLAPSMAPVAGLTWEDSEGTEGSSLLPGEQPLHTVDPGSAKQRPPRSTCQSFEPPETPVVKDSTIGGSPQPRPSVGAFNPGMEDILDSAMGTNWVPEEASGEASEIPVPQGTELSPSRPGGGSMQTEPARPSNFLSASSPLPASAKGQQPADVTGTALPRVGPVRPTGQDWNHTPQKTDHPSALLRDPPEPGSPRISSLRPQGLSNPSTLSAQPQLSRSHSSGSVLPLGELEGRRSTRDRRSPAEPEGGPASEGAARPLPRFNSVPLTDTGHERQSEGSFSPQLQESVFHLLVPSVILVLLAVGGLLFYRWRRRSHQEPQRADSPLEQPEGSPLTQDDRQVELPV
macropinocytosis of nLDL (Nile Red fluorescence) (THP-1 macrophages): stimulated
